The values that follow come from patent US20120027777A1, “LJUNGAN VIRUS WITH IMPROVED REPLICATION CHARACTERISTICS” (APODEMUS AB, priority 2009, published 2012).

For the test, the system named is GMK cells. As to the kind of experiment: Cellular DNA degradation by electrophoresis. The conditions noted are these: uninfected GMK cells, 16 h treatment, 0.5 μM, positive control. The test is classed as cell-based, Green Monkey. The method, then: Degradation of chromosomal DNA is one of the hallmarks of apoptotic cells. DNA degradation in GMK cells infected with 145SL and 145SLG as well as recombinant derivatives of these viruses was assayed as previously described by with some minor modifications. Briefly, subconfluent GMK cells in T25-flasks were infected with 0.5 mL of virus lysates generated from viral cDNA clones by transfection and subsequent blind passage as previously described. […] Lysis of cells was induced using 0.2% Triton X-100, 0.5 mM EDTA in 10 mM Tris-HCl, pH 7.4. Fragmented chromatin was released from cell nuclei by vortexing. The nucleic components were separated (20,000×g for 10 min at 4° C.) and the nucleic acids in the supernatant fraction were precipitated. After precipitation, the nucleic acids were washed in 70% ethanol and dissolved in 50 μl TE buffer (1 mM EDTA, 10 mM Tris-HCl, pH 7.4). The RNA fraction of isolated nucleic acids was degraded using RNase A (10 μg/ml for 30 min at 37° C.). Finally, 1 μg isolated nucleic acids of each sample were separated by electrophoresis in a 1.5% agarose gel. Apoptosis in control cells was induced by a 16 h treatment of GMK cells with 0.5 μM staurosporine (Sigma), a broad spectrum protein kinase inhibitor [10]. The nucleic acids from these control cells were otherwise treated in the same way as described for cells infected with LV.

Turning to `CN[C@@H]1C[C@H]2O[C@@](C)([C@@H]1OC)n1c3ccccc3c3c4c(c5c6ccccc6n2c5c31)C(=O)NC4` [staurosporine], the DNA fragmentation result was “expected processing of the nuclear DNA”.
